According to ChEMBL document CHEMBL1201862, “PubChem BioAssay data set” (2004):
Calls of active or inactive are those of the source.

Experiments:
[1] = tested on: Streptococcus sp. 'group A'; experiment: Streptococcus pyogenes SK(-)GAS viability under kanamycin – luminescence, BacTiterGlo, confirmation, counter-screen for streptokinase expression inhibitor project, dose response (AID 1900); type: functional, organism-based
[2] = target: Serine/threonine-protein kinase pim-1 (Homo sapiens, UniProt P11309); type: functional
[3] = target: Serine/threonine-protein kinase TAO1 (Homo sapiens, UniProt Q7L7X3); type: functional
[4] = target: Tyrosine-protein kinase JAK2 (Homo sapiens, UniProt O60674); type: functional;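 also: JAK2 tested as one member of a kinase panel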
[5] = target: BDNF/NT-3 growth factors receptor (Homo sapiens, UniProt Q16620); type: functional;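 also: NTRK2 measured as one member of a broad kinome-wide kinase profiling panel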
Aurora kinase B = Aurora kinase B (Homo sapiens, UniProt Q96GD4); type: functional
[6] = target: T1, Mitogen-activated protein kinase kinase kinase kinase 2 (Homo sapiens, UniProt Q12851); type: functional;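 also: measured as one member of a kinome-wide kinase panel, with MAP4K2 as the panel entry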
T1 sequence (Q12851 whole entry): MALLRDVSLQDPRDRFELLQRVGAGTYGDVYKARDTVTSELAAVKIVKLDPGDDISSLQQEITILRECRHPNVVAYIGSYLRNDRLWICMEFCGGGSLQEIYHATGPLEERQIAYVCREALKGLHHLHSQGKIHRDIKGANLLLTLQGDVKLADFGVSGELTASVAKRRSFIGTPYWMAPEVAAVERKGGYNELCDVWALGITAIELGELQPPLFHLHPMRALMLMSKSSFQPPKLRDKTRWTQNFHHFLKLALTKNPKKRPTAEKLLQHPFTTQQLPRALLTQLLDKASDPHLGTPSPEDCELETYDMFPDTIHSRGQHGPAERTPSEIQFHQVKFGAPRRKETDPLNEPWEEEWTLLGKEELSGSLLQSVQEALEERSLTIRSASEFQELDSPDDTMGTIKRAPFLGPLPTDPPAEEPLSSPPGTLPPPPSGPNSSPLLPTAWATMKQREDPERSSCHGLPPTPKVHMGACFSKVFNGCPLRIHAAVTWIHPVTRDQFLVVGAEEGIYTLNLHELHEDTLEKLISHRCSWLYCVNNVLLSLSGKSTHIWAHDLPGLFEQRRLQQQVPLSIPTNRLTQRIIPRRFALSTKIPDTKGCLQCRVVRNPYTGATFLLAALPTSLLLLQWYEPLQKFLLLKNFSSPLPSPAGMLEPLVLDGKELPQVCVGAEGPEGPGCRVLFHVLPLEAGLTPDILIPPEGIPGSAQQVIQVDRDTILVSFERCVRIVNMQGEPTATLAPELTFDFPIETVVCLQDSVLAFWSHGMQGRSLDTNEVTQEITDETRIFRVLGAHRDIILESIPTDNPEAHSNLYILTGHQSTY

[7] = target: 5'-AMP-activated protein kinase catalytic subunit alpha-1 (Homo sapiens, UniProt Q13131); type: functional
[8] = target: Glycogen synthase kinase-3 beta (Homo sapiens, UniProt P49841); type: functional;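 also: value comes from a broad kinome profiling panel, with GSK3B as the panel member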
[9] = target: Dual specificity mitogen-activated protein kinase kinase 1 (Homo sapiens, UniProt Q02750); experiment: Navigating the Kinome. Panel member name: MAP2K1; type: functional
[10] = target: Leukocyte tyrosine kinase receptor (Homo sapiens, UniProt P29376); experiment: Navigating the Kinome. Panel member name: LTK; type: functional
[11] = target: Dual specificity protein kinase CLK4 (Homo sapiens, UniProt Q9HAZ1); type: functional
[12] = target: Mitogen-activated protein kinase 8 (Homo sapiens, UniProt P45983); type: functional;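 also: value comes from one member of a kinome-wide kinase profiling panel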
[13] = target: Calcium/calmodulin-dependent protein kinase type II subunit alpha (Homo sapiens, UniProt Q9UQM7); experiment: Navigating the Kinome. Panel member name: CAMK2A; type: functional
[14] = target: T2, Serine/threonine-protein kinase D3 (Homo sapiens, UniProt O94806); type: functional;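 also: determined within a kinase panel screen, with PRKCN as the panel member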
T2 sequence (O94806 whole entry): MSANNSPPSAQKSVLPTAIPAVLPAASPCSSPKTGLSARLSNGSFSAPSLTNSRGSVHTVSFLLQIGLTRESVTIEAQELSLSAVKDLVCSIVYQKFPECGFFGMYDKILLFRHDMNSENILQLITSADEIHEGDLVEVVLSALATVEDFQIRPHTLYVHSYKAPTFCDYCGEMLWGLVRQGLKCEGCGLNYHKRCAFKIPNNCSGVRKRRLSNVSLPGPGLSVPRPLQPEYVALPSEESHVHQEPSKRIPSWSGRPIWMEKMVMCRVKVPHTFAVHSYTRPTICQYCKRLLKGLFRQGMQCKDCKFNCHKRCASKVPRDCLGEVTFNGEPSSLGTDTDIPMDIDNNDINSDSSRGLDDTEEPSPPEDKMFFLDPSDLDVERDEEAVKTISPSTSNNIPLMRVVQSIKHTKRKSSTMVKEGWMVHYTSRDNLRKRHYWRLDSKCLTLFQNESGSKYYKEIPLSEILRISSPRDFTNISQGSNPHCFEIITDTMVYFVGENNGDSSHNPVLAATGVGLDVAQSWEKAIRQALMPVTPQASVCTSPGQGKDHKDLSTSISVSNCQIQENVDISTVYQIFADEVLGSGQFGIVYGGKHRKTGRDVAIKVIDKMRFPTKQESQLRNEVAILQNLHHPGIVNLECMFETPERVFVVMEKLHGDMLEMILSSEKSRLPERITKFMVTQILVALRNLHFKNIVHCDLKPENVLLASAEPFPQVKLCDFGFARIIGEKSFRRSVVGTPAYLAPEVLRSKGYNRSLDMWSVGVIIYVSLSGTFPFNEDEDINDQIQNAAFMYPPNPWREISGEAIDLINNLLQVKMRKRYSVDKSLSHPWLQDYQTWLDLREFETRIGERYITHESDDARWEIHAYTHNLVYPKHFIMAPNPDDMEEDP

[15] = target: T3, cAMP-dependent protein kinase catalytic subunit PRKX (Homo sapiens, UniProt P51817); type: functional
T3 sequence (P51817 whole entry): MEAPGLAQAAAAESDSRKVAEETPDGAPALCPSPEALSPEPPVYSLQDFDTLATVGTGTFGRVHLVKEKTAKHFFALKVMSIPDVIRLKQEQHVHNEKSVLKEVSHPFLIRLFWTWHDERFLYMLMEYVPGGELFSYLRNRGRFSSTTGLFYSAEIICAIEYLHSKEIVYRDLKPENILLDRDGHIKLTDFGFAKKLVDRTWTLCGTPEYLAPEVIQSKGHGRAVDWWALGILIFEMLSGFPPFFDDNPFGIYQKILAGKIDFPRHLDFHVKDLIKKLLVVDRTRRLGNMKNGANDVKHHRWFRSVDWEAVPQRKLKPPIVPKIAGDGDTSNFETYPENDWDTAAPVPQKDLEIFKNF

Sequence of Mitogen-activated protein kinase 8 (P45983 whole entry): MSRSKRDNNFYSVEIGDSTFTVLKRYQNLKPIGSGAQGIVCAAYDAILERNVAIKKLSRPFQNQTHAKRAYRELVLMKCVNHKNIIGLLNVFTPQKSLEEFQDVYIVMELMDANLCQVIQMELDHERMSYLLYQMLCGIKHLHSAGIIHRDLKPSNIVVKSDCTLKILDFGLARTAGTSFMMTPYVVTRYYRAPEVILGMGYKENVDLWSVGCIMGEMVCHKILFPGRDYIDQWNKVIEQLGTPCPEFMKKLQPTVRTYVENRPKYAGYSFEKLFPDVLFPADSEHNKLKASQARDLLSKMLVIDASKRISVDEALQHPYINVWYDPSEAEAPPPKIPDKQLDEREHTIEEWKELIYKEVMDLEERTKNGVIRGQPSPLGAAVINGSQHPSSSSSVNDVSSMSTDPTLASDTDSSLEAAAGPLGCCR
Sequence of Aurora kinase B (Q96GD4 whole entry): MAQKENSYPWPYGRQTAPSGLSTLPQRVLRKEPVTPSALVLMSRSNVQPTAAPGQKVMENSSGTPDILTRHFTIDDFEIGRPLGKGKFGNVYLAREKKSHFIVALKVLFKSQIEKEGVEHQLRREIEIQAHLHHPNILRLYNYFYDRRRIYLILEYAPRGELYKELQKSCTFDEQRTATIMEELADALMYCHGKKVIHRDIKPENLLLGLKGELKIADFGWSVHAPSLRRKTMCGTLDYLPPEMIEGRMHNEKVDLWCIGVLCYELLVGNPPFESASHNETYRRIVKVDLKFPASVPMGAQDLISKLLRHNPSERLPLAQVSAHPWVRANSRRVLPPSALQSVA
Sequence of Leukocyte tyrosine kinase receptor (P29376 whole entry): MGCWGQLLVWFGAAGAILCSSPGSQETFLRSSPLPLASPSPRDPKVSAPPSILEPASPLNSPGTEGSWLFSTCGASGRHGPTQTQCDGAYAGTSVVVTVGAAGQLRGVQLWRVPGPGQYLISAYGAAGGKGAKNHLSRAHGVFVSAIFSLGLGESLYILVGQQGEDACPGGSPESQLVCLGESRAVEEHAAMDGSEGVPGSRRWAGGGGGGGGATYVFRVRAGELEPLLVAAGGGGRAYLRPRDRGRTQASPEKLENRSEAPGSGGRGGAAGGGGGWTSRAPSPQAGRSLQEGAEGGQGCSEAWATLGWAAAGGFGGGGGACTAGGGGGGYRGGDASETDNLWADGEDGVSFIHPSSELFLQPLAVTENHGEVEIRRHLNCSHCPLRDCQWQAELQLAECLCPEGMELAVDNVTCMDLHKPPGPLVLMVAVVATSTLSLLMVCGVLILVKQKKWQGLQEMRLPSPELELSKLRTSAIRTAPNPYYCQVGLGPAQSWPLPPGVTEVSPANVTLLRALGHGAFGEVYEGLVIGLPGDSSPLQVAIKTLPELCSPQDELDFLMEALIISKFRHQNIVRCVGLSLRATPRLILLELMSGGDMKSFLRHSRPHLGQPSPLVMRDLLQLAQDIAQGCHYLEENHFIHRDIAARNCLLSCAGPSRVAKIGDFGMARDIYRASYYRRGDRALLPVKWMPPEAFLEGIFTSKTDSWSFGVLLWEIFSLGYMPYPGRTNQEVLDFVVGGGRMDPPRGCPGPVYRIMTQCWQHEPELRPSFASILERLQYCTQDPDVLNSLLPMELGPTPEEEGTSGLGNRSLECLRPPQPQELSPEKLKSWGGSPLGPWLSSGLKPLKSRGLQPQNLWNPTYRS
Sequence of Calcium/calmodulin-dependent protein kinase type II subunit alpha (Q9UQM7 whole entry): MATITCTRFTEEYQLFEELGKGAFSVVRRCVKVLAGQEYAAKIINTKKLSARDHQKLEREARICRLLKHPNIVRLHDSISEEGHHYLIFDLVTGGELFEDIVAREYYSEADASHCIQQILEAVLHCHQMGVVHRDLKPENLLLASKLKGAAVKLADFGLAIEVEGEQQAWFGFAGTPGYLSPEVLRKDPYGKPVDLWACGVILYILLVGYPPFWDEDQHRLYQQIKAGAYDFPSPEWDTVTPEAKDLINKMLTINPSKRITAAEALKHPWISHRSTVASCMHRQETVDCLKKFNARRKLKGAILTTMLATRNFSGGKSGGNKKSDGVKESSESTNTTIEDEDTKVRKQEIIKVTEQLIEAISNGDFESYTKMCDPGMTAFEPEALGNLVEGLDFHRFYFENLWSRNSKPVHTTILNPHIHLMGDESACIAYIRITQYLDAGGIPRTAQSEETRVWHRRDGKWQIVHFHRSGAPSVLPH
Sequence of Dual specificity protein kinase CLK4 (Q9HAZ1 whole entry): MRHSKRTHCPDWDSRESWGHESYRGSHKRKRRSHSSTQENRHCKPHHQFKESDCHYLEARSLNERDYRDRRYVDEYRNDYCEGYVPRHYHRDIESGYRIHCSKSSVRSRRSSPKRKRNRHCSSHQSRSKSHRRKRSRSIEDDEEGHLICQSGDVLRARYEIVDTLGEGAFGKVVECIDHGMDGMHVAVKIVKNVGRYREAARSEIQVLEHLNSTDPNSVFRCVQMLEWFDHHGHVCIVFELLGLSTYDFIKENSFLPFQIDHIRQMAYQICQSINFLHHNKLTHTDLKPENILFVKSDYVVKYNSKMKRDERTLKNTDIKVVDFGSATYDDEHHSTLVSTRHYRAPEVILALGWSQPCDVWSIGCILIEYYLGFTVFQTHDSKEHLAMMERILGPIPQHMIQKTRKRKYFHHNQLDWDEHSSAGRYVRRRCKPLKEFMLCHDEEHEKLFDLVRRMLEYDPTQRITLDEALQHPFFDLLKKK
Sequence of Glycogen synthase kinase-3 beta (P49841 whole entry): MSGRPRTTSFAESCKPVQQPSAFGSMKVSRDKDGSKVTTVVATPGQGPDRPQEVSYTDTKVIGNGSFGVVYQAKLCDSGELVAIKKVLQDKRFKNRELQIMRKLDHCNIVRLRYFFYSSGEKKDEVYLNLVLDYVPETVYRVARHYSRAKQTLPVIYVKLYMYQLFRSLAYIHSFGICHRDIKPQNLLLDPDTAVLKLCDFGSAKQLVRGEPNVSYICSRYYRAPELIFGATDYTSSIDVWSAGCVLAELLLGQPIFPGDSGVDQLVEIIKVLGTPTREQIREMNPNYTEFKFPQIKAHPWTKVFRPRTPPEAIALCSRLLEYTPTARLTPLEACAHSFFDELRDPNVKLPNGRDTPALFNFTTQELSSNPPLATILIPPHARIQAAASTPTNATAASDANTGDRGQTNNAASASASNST
Sequence of Serine/threonine-protein kinase pim-1 (P11309 whole entry): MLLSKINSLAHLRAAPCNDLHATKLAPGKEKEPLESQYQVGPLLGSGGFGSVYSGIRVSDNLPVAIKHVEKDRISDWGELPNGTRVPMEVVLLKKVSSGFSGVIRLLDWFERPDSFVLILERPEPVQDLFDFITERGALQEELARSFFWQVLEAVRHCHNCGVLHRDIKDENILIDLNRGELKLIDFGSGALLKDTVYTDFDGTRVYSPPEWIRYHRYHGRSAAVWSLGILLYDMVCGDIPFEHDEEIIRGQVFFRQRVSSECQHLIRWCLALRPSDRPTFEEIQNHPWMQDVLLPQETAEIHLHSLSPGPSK
Sequence of Tyrosine-protein kinase JAK2 (O60674 whole entry): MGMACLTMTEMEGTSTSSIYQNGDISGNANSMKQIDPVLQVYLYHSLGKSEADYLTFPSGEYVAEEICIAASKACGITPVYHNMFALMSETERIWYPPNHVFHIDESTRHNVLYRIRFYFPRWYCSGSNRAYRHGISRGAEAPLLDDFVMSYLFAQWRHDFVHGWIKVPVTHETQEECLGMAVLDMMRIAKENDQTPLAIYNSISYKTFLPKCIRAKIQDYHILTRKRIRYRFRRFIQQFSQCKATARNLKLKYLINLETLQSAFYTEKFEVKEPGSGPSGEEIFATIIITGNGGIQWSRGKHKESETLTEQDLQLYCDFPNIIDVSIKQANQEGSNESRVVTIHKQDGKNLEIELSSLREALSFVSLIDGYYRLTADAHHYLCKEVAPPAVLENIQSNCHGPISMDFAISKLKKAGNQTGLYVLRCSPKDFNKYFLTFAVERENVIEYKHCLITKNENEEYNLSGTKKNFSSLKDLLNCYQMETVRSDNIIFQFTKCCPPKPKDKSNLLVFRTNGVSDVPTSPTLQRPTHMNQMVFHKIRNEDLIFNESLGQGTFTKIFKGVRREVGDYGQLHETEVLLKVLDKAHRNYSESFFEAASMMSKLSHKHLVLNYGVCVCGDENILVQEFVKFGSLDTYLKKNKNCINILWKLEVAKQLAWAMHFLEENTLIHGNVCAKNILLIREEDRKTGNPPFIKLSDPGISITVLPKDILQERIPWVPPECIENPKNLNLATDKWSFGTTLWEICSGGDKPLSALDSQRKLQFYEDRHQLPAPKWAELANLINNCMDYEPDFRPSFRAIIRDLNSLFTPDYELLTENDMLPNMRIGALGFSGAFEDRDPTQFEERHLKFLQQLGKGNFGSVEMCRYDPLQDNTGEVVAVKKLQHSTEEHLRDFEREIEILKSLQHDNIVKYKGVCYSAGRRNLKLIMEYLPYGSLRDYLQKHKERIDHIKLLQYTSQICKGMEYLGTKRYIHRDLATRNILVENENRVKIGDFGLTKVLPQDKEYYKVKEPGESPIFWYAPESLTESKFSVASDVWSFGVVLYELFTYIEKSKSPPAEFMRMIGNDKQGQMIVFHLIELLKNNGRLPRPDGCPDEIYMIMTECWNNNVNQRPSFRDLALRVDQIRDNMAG
Sequence of Dual specificity mitogen-activated protein kinase kinase 1 (Q02750 whole entry): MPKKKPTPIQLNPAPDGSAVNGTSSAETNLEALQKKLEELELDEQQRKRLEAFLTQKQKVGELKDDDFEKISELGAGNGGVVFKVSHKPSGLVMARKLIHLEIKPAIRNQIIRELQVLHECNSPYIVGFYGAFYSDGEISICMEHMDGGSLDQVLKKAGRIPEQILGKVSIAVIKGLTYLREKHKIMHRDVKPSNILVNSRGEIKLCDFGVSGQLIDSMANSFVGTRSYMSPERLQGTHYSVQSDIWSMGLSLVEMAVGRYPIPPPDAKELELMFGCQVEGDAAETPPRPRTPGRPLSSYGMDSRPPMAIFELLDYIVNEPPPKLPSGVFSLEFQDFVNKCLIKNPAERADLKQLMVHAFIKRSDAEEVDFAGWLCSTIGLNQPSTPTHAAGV

Row | Ki [2] | Ki [3] | Ki [4] | Ki [5] | Ki (Aurora kinase B) | Ki [6] | Ki [7] | Ki [8] | Ki [9] | Ki [10] | Ki [11] | Ki [12] | Ki [13] | Ki [14] | Ki [15] | SMILES | EC50 [1] | further results
1 | – | – | – | – | – | – | – | – | – | – | – | – | – | – | – | CCOC(=O)c1ccc(NC2=CC(=O)C(=O)c3ccccc32)cc1 | 2300 nM (active) | –
2 | – | – | – | – | – | – | – | – | – | – | – | – | – | – | – | CCCCCCCCCCCCCCCC[N+](C)(C)C | 2060 nM (active) | –
3 | 126 nM (active) | > 6310 nM (inactive) | 794 nM (active) | 794 nM (active) | 251 nM (active) | 63.1 nM (active) | 39.8 nM (active) | 398 nM (active) | 20 nM (active) | 126 nM (active) | 1 nM (active) | 1260 nM (active) | 200 nM (active) | 5.01 nM (active) | 3.16 nM (active) | NC1CCC(Nc2nc(Cl)cc(-c3c[nH]c4ncccc34)n2)CC1 (stereo unspecified) | – | pKi [2]: 6.9; pKi [4]: 6.1; pKi [5]: 6.1; pKi (Aurora kinase B): 6.6; pKi [6]: 7.2; pKi [7]: 7.4; pKi [8]: 6.4; pKi [9]: 7.7; pKi [10]: 6.9; pKi [11]: 9; pKi [12]: 5.9; pKi [13]: 6.7; pKi [14]: 8.3; pKi [15]: 8.5
4 | > 6310 nM (inactive) | > 6310 nM (inactive) | > 2510 nM (inactive) | > 3980 nM (inactive) | > 3980 nM (inactive) | > 2510 nM (inactive) | > 3160 nM (inactive) | > 3980 nM (inactive) | > 3160 nM (inactive) | > 2510 nM (inactive) | > 2510 nM (inactive) | > 5010 nM (inactive) | > 3980 nM (inactive) | > 3980 nM (inactive) | 1260 nM (active) | O=C(O)C1CN(Cc2ccc(OCc3ccccc3)cc2Cl)C1 | – | –
